Measurements reported in patent US6890954B1, “Uses of 2-bromopalmitate in the treatment of autoimmune disease” (priority 1999, dated 2005).

Experiments:
Format in all cases: cell-based
Fyn = biological target: T1, Fyn (Homo sapiens, UniProt P06241); assay: Fyn fatty acylation (IC13/IC16) in transfected Jurkat T cells; details: 100 μM, 3 hours preincubation
T1 construct: expressed in transfected cells; host or cells: COS-1
Protocol: The syntheses of 13-[^125I]-iodotridecanoic acid (IC13)or 16-[^125I]-iodohexanoic acid (IC16) were carried out as described previously (39). Cell labeling was carried out as described (12,13) with modifications. Briefly, each 60 mm plate of Fyn transfected COS-1 cells was incubated O/N in DMEM containing 2.5% FBS, 0.5% defatted BSA (Sigma) with or without 100 μM 2-bromopalmitate or 50 μM polyunsaturated fatty acid. Prior to labeling, the cells were incubated for 1 hr with 1 ml of DMEM containing 2% dialyzed FBS, then labeled for 4 hours with 25-50 μCi IC13 or IC16 in DMEM containing 2% dialyzed FBS, 0.5% defatted BSA with or without 2-bromopalmitate or polyunsaturated fatty acid. Labeled cells were washed three times with cold STE (100 mM NaCl, 10 mM Tris pH 7.4, 1 mM EDTA) and lysed in 0.6 ml of cold RIPA buffer containing protease inhibitors (10 μg/ml each of benzamidine, AEBSF, TPCK and TLCK, 1.5 μg/ml each of Leupeptin, Pepstatin A and Aprotinin). Lysates were clarified at 100,000×g for 15 min at 4° C. in a Beckman TL-100 ultracentrifuge. […] Gels were dried between cellophane and analyzed by phosphorimaging after 12-36 hours exposure. […]
The Src family kinases Fyn and Lck play critical roles in T cell receptor (TCR) mediated signaling. […] Total protein levels were monitored by immunoprecipitation followed by immunoblotting with anti-Fyn antibody.

[1] = test system: G2A,C3SFyn-HRas and G12V H-Ras; assay: Membrane localization of the two Ras constructs in COS-1 cells; details: COS-1, 2-bromopalmitate overnight
Protocol: Analysis of the G2A,C3S Fyn-HRas chimera was performed according to the procedure described above. Analysis of the G12V HRas construct was according to the procedure described above, except that the samples were not immunoprecipiated, and were subjected to immunoblotting with anti-HRas antibody.
(§1) Each of these three sequences was appended onto the Fyn protein. Gαo(10)-Fyn and GAP43(10)-Fyn are chimeric constructs with the first 10 amino acids of Gαo or GAP-43, respectively, in place of the first 10 amino acids of wt Fyn. These constructs have been previously described (12,13). In addition, the H-Ras tail was fused to the C-terminus of a non-acylated Fyn mutant (G2A,C3SFyn-HRas). This construct contains full length Fyn with mutations in the N-terminal myristoylation and palmitoylation sites, but with the C-terminus of H-Ras available for prenylation and palmitoylation.
Finally, an oncogenic G12V full length H-Ras construct was tested. […] In contrast, 2-bromopalmitate had only a minimal effect on the membrane localization of the two Ras constructs, inducing a 10-20% shift from membrane to cytosol (FIGS. 3C and D). The G12V H-Ras construct migrates as a doublet on a gel. The slower migrating form represents the non-processed cytosolic form of H-Ras, and the faster migrating form represents the processed Ras, which is membrane bound.

PI3K = assay: CD3-mediated tyrosine phosphorylation of PI3K in Jurkat cells; details: 100 μM 3 hours, OKT3
Protocol: (§2) Jurkat T cells (2×10^6−1×10^7) were centrifuged at 1,000×g for 5 minutes, rinsed with RPMI, resuspended in RPMI supplemented with 2% dialyzed FBS, 0.5% defatted BSA, and incubated with or without 100 μM 2-bromopalmitate at 8×10^5 cells/ml for 3 hours. The cells were centrifuged, washed with RPMI and resuspended in RPMI at 1×10^7−1×10^8 cells/ml. The cells were then activated with anti-CD3 OKT3 mAb (0.3 mg/ml) for 3 min at 37° C., quickly spun down, washed once with cold RPMI and once with cold STE, and lysed in RIPA Samples were solubilized in 1× sample buffer containing 5% β-mercaptoethanol and subjected to SDS-PAGE, followed by immunoblotting with anti-phosphotyrosine antibody (PY99). For analysis of specific proteins, RIPA lysates were immunoprecipitated with the specific antibodies O/N, and immunoblotted for phosphotyrosine. Alternatively, proteins were immunoprecipitated with agarose-conjugated anti phosphotyrosine antibody and blotted for the specific proteins.
(§3) In order to identify the individual proteins whose tyrosine phosphorylation is affected by 2-bromopalmitate, lysates were immunoprecipitated with a panel of specific antibodies, and immunoblotted for phosphotyrosine. Alternatively, lysates were immunoprecipitated with an antiphosphotyrosine antibody, and blotted with antibodies to specific proteins.

MAP kinase = assay: Activation of MAP kinase in Jurkat cells (pERK immunoblot); details: OKT3 activated, pERK1 blot
Protocol: Jurkat cells were treated with 2-bromopalmitate and activated as described above. Lysates were analyzed for the presence of active MAP kinase by immunoblotting with a pERK antibody, and for total MAP kinase by immunoblotting with an anti MAPK antibody.
One of the proximal events following T cell receptor engagement is activation of the MAP Kinase pathway. The ability of 2-bromopalmitate to inhibit activation of MAP kinase was examined in Jurkat cells. Cells were cultured with or without 2bromo-palmitate and activated as described above. Cell lysates were subjected to SDS-PAGE and immunoblotted with anti-active MAPK kinase (pERK1). As depicted in FIG. 7, 2-bromopalmitate inhibited the activation of MAPK kinase by 70%. The levels of total MAPK kinase remained unchanged (FIG. 7).

PLC-γl = assay: CD3-mediated tyrosine phosphorylation of PLC-γl in Jurkat cells; details: 100 μM 3 hours, OKT3
Protocol: as §2, §3

GAP43(10)-Fyn = assay: Membrane binding of GAP43(10)-Fyn chimera in COS-1 cells; details: COS-1, 2-bromopalmitate overnight, 2 hours label
Protocol: For analysis of newly synthesized Fyn, cells were cultured overnight as descibed above, then starved for 1 hr in DMEM minus methionine and cysteine containing 2% dialyzed FBS, 0.5% defatted BSA with or without 100 μM 2-bromopalmitate. Cells were labeled for 5 minutes with Trans^35S-Label (ICN, Irvine, Calif.), then fractionated as described above. Gels were treated for 20 minutes with 1M salicylic acid prior to drying. The Gαo(10)-Fyn chimera was labeled for 5 min and GAP-43 Fyn chimera was labeled for 2 hours and fractionated according to the above conditions.
as §1

T1 sequence (P06241 whole entry, species assumed): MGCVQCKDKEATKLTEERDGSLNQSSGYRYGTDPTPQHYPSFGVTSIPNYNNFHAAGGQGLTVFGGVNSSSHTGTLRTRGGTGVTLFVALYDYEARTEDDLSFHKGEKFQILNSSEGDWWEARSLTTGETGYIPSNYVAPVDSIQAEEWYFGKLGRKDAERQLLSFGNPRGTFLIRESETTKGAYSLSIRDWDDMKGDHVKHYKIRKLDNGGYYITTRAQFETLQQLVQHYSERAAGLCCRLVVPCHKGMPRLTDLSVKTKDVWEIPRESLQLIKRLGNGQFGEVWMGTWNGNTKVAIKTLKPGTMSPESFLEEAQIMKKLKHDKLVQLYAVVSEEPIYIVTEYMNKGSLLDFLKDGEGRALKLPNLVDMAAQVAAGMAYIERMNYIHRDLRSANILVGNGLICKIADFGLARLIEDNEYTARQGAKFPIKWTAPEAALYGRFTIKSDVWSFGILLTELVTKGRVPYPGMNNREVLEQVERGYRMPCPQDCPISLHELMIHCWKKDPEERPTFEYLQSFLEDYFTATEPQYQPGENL

CCCCCCCCCCCCCCC(Br)C(=O)O (stereo not shown) [2-bromopalmitate]
Fyn myristoylation inhibited relative to untreated controls (Fyn; IC13): 75% | Fyn palmitoylation inhibited relative to untreated controls (Fyn; IC16): 90% | shift from membrane to cytosol of the two Ras constructs [1]: 10-20% | PI3K phosphorylation inhibited (PI3K): 50% | activation of MAPK kinase inhibited (MAP kinase): 70% | PLC-γl phosphorylation inhibited (PLC-γl): 70% | inhibition of membrane binding of GAP43(10)-Fyn (GAP43(10)-Fyn): to the same extent as wt Fyn
